Read-outs that look alike come from different tables or passages of the source.
Key:
rCYP2D6 = rCYP2D6 (Homo sapiens, UniProt P10635); experiment: Metabolic stability / reaction phenotyping with recombinant human CYP2D6; details: 1 µM test compound; 100 pmol/mL; 30 min
rCYP2C9 = rCYP2C9 (Homo sapiens, UniProt P11712); experiment: Metabolic stability / reaction phenotyping with recombinant human CYP2C9; details: for % Metabolized at 30 min Incubation with Human Liver Fractions/Enzymes rCYP2C9: 1 µM test compound, 100 pmol/mL
rCYP2C9, sequence (P11712 whole entry): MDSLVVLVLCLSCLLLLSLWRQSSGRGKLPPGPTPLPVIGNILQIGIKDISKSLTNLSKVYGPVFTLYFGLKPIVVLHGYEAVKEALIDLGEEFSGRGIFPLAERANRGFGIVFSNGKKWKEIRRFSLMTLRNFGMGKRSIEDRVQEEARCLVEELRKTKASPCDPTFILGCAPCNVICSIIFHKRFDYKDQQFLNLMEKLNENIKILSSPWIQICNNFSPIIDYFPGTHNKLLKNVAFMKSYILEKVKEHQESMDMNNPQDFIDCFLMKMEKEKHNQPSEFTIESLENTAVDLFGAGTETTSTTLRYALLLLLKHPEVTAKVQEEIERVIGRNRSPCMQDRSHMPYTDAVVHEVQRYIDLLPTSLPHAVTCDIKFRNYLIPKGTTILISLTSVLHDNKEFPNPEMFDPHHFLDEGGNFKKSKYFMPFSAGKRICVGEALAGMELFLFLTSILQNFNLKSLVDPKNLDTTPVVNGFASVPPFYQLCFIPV

rCYP3A4 = rCYP3A4 (Homo sapiens, UniProt P08684)
rCYP3A4, sequence (P08684 whole entry): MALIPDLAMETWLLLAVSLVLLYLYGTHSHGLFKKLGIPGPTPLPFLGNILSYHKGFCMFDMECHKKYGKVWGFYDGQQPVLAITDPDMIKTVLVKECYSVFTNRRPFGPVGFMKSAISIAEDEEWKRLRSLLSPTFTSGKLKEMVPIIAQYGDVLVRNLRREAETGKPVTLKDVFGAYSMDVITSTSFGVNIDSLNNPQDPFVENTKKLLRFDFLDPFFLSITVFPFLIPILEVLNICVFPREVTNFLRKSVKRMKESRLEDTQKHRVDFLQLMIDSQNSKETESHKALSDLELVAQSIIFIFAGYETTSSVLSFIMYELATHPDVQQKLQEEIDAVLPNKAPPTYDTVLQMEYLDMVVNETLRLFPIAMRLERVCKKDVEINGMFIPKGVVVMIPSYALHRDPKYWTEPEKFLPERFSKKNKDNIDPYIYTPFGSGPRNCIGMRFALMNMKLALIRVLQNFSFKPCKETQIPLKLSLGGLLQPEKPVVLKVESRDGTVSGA

[1] = Metabolic stability, incubation with human liver microsomes; details: 1 µM test compound, 0.5 mg/mL protein
rCYP1A2 = biological target: T1, rCYP1A2 (Homo sapiens, UniProt P05177); experiment: Metabolic stability / reaction phenotyping with recombinant human CYP1A2; details: 1 µM test compound; 100 pmol/mL; 30 min
T1 sequence (P05177 1-516): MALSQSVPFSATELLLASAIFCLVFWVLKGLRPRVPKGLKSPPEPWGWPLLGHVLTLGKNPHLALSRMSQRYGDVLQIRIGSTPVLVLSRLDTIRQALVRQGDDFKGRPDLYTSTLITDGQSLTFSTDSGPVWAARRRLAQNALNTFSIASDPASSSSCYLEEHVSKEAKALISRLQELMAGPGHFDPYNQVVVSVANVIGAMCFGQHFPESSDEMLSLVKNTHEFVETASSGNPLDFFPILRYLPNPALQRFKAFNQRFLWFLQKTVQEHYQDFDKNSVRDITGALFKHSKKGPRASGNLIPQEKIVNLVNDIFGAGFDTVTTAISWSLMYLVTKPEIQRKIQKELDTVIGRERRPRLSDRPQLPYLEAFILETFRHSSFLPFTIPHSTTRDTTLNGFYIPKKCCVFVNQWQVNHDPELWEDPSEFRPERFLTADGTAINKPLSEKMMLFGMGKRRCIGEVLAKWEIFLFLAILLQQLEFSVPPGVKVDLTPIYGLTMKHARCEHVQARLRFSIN

rCYP2C8 = biological target: T2, rCYP2C8 (Homo sapiens, UniProt P10632); experiment: Metabolic stability / reaction phenotyping with recombinant human CYP2C8; details: for % Metabolized at 30 min Incubation with Human Liver Fractions/Enzymes rCYP2C8: 1 µM test compound, 100 pmol/mL
T2 sequence (P10632 1-490): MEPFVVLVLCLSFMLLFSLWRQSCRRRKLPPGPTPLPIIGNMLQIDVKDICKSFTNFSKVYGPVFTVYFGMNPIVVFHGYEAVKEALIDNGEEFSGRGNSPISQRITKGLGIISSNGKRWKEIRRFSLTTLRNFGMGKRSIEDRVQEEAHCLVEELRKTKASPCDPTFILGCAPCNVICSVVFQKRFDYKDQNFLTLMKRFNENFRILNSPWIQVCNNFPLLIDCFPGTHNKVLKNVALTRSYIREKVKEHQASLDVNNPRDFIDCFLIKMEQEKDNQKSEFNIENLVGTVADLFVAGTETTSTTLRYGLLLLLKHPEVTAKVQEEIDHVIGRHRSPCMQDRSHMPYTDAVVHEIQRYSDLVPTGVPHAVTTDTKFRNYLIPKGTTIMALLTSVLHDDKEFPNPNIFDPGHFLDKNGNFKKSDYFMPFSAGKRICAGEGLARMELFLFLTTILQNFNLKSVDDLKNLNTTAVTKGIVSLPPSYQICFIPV

[2] = Metabolic stability, incubation with human liver cytosol; format: in vitro ADME; details: 1 µM test compound, 1 mg/mL protein
CYP2C8 = biological target: T3, CYP2C8 (Homo sapiens, UniProt P10632); experiment: CYP inhibition in human liver microsomes, CYP2C8; details: human, human liver microsomes, pH 7.4, probe paclitaxel
T3 sequence (P10632 1-490): T2 sequence (P10632 1-490)

CYP3A4 [3] = biological target: T4, CYP3A4 (Homo sapiens, UniProt P08684); experiment: in vitro; details: microsomes, pH 7.4, % Inhibition of Control Activity CYP3A4 (substrate, testosterone)
T4 sequence (P08684 2-503): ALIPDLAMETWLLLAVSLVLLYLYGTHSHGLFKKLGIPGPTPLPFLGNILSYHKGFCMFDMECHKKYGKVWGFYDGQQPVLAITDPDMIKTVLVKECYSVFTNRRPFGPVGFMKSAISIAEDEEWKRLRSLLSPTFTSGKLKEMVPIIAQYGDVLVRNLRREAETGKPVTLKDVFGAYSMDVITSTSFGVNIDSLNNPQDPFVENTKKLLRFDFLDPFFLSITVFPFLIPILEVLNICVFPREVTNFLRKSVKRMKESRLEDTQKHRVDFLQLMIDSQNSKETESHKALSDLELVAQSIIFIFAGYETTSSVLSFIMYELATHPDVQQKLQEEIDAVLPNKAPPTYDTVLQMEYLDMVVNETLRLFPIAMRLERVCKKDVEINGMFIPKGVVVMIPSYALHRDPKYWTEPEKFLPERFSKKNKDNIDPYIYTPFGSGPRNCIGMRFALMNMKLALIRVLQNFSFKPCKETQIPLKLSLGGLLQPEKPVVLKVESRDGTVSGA

CYP3A4 [4] = biological target: T4, CYP3A4; experiment: in vitro; details: microsomes, pH 7.4
rCYP2C19 = rCYP2C19 (Homo sapiens, UniProt P33261); experiment: Metabolic stability / reaction phenotyping with recombinant human CYP2C19; details: 1 µM test compound; 100 pmol/mL; 30 min
rCYP2C19, sequence (P33261 whole entry): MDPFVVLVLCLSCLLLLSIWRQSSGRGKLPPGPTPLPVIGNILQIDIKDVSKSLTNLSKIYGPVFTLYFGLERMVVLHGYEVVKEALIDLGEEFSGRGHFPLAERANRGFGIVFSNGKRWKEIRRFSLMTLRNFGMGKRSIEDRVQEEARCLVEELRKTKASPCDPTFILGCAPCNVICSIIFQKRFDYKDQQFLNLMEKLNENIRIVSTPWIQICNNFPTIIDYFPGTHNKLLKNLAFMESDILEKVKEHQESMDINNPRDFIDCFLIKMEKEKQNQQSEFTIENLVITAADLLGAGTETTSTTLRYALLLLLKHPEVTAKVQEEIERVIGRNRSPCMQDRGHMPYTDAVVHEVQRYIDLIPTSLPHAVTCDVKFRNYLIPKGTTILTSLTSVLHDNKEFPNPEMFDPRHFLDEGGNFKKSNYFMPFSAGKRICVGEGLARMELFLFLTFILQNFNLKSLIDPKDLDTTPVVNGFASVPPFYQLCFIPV

[5] = human, recombinant human CYP2C8, 1 µM, pH 7.4
[6] = human, recombinant human CYP2C9, 1 µM, pH 7.4

rCYP2D6, sequence (P10635 whole entry): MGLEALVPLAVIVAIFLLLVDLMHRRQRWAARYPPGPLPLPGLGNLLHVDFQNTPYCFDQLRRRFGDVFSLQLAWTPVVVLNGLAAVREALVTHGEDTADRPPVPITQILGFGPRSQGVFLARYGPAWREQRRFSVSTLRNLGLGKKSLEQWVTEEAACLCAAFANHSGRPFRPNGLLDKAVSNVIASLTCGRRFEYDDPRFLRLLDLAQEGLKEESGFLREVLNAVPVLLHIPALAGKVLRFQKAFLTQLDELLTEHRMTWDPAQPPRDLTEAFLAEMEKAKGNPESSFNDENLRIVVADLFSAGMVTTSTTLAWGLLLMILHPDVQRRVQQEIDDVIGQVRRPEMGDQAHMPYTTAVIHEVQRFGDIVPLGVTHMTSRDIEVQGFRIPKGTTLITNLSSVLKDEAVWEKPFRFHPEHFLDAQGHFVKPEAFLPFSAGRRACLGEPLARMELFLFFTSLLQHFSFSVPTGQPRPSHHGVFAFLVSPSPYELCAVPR

COc1ccc2c(c1)[C@]13CCCC[C@@H]1[C@H](C2)N(C)CC3 [Dextromethorphan, dextromethorphan]
% Metabolized at 30 min Incubation with Human Liver Fractions/Enzymes rCYP2D6 (rCYP2D6): 99.81%

O=C(O)Cc1ccccc1Nc1c(Cl)cccc1Cl [Diclofenac, diclofenac, reference compound]
% Metabolized at 30 min Incubation with Human Liver Fractions/Enzymes rCYP2C9 (rCYP2C9): 98.61%

C[C@]12CC[C@H]3[C@@H](CCC4=CC(=O)CC[C@@]43C)[C@@H]1CC[C@@H]2O [Testosterone, testosterone, reference compound]
% Metabolized at 30 min Incubation with Human Liver Fractions/Enzymes rCYP3A4 (rCYP3A4; human, recombinant enzyme, 0.5 h, pH 7.4): 85.13% | % Metabolized at 30 min Incubation with Human Liver Fractions/Enzymes HLM [1]: 90.74%

CCOc1ccc(NC(C)=O)cc1 [Phenacetin, phenacetin]
% Metabolized at 30 min Incubation with Human Liver Fractions/Enzymes rCYP1A2 (rCYP1A2): 91.43%

CC(=O)O[C@H]1C(=O)[C@@]2(C)[C@H]([C@H](OC(=O)c3ccccc3)[C@]3(O)C[C@H](OC(=O)[C@H](O)[C@@H](NC(=O)c4ccccc4)c4ccccc4)C(C)=C1C3(C)C)[C@]1(OC(C)=O)CO[C@@H]1C[C@@H]2O [Paclitaxel, paclitaxel]
% Metabolized at 30 min Incubation with Human Liver Fractions/Enzymes rCYP2C8 (rCYP2C8): 11.21%

c1ccc2cnncc2c1 [Phthalazine, phthalazine, reference compound]
% Metabolized at 30 min Incubation with Human Liver Fractions/Enzymes Cytosol [2]: 90.89%

CN(CCOc1ccc(CC2SC(=O)NC2=O)cc1)c1ccccn1 (centres unmarked) [Rosiglitazone, reference compound]
inhibition at 25 µM (CYP2C8): 69.2%

CNC(=O)O/N=C/C(C)(C)S(C)(=O)=O [Aldicarb sulfone, aldicarb sulfone]
% Metabolized at 30 min Incubation with Human Liver Fractions/Enzymes Cytosol [2]: 0.00% | inhibition at 2 µM (CYP3A4 [3]): 1.83% | inhibition at 10 µM (CYP3A4 [3]): < 0% | inhibition at 2 µM (CYP3A4 [4]): < 0% | inhibition at 10 µM (CYP3A4 [4]): < 0% | % Metabolized at 30 min Incubation with Human Liver Fractions/Enzymes HLM [1]: 1.05% | inhibition at 2 µM (CYP2C8): 2.77% | inhibition at 10 µM (CYP2C8): 4.1%

CNC(=O)O/N=C/C(C)(C)SC [Aldicarb, aldicarb]
% Metabolized at 30 min Incubation with Human Liver Fractions/Enzymes Cytosol [2]: 21.08% | % Metabolized at 30 min Incubation with Human Liver Fractions/Enzymes rCYP3A4 (rCYP3A4; 1 µM test compound, 100 pmol/mL, 30 min): 0.00% | inhibition at 2 µM (CYP3A4 [3]): < 0% | inhibition at 10 µM (CYP3A4 [3]): < 0% | inhibition at 2 µM (CYP3A4 [4]): < 0% | inhibition at 10 µM (CYP3A4 [4]): < 0% | % Metabolized at 30 min Incubation with Human Liver Fractions/Enzymes HLM [1]: 13.41% | inhibition at 2 µM (CYP2C8): 2.63% | inhibition at 10 µM (CYP2C8): < 0% | % Metabolized at 30 min Incubation with Human Liver Fractions/Enzymes rCYP1A2 (rCYP1A2): 0.00% | % Metabolized at 30 min Incubation with Human Liver Fractions/Enzymes rCYP2C8 (rCYP2C8): 13.26% | % Contribution of CYP Enzymes (fmCYP) in Metabolism, CYP2C8 (rCYP2C8; [5]): 56.91% | Predicted Microsomal Clint, CYP2C8 (rCYP2C8; [5]): 3.035 µL/min/mg Protein | rCYP Clint, CYP2C8 (rCYP2C8; [5]): 0.047 µL/min/pmol | % Metabolized at 30 min Incubation with Human Liver Fractions/Enzymes rCYP2C9 (rCYP2C9): 0.00% | % Contribution of CYP Enzymes (fmCYP) in Metabolism, CYP2C9 (rCYP2C9; [6]): 43.09% | Predicted Microsomal Clint, CYP2C9 (rCYP2C9; [6]): 2.298 µL/min/mg Protein | rCYP Clint, CYP2C9 (rCYP2C9; [6]): 0.024 µL/min/pmol | % Metabolized at 30 min Incubation with Human Liver Fractions/Enzymes rCYP2D6 (rCYP2D6): 0.00% | % Metabolized at 30 min Incubation with Human Liver Fractions/Enzymes rCYP2C19 (rCYP2C19): 6.93%

CN(C)CCCOc1nn(Cc2ccccc2)c2ccccc12 [Benzydamine, reference compound]
% Metabolized at 30 min Incubation with Human Liver Fractions/Enzymes HLM [1]: 16.45%

CN(Cc1cnc2nc(N)nc(N)c2n1)c1ccc(C(=O)N[C@@H](CCC(=O)O)C(=O)O)cc1 [Methotrexate, reference compound]
% Metabolized at 30 min Incubation with Human Liver Fractions/Enzymes Cytosol [2]: 3.18%

From publication PMC6416464 (Drug Metabolism Letters, 2018)
